Measurements reported in ChEMBL document CHEMBL1255210, “Discovery of pyrrolopyridazines as novel DGAT1 inhibitors” (Bioorg Med Chem Lett, 2010).

Assays:
[1] = target: T1, Diacylglycerol O-acyltransferase 1 (Homo sapiens, UniProt O75907); test: Inhibition of human liver flag-tagged DGAT1 expressed in baculovirus infected insect cells after 2 hrs
T1 sequence (O75907 whole entry): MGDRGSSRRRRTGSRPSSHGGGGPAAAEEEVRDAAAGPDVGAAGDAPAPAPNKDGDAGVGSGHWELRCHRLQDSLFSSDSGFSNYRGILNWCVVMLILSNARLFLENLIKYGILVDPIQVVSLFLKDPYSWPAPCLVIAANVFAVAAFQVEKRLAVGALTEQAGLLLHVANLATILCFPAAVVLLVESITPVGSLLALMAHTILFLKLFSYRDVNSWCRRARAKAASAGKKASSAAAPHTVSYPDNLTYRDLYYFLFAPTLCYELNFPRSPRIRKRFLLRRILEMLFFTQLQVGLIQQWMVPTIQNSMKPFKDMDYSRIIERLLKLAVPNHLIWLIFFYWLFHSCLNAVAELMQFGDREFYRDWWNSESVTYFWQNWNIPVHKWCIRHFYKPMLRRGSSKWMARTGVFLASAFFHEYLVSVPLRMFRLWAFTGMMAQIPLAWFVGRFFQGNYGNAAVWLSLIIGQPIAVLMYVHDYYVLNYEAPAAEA

[2] = target: T2, Sterol O-acyltransferase 1 (Homo sapiens, UniProt P35610); test: Inhibition of human full-length flag-tagged ACAT1 expressed in baculovirus infected insect cells after 10 mins
T2 sequence (P35610 whole entry): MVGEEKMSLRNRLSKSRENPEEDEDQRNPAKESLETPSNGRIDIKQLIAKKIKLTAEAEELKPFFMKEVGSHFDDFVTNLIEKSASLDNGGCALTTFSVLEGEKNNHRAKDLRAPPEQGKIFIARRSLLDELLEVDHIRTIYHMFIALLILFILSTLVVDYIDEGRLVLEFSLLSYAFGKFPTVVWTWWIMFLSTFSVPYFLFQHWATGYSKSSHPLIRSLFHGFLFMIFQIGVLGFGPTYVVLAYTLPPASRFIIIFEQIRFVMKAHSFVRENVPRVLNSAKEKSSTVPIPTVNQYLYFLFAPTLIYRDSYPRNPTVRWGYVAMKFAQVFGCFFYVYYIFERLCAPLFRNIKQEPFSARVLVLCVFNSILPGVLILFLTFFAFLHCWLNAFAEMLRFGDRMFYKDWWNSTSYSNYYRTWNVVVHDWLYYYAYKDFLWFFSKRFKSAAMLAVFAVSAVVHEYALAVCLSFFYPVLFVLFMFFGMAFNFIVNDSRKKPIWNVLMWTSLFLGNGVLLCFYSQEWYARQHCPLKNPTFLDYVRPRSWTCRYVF

[3] = target: T1, Diacylglycerol O-acyltransferase 1; test: Inhibition of DGAT1 in human Caco-2 cells after 30 mins; assay type: cell-based

Row | Compound | IC50 [1] | IC50 [2] | IC50 [3]
1 | CCOC(=O)c1c(C(=O)OCC)c2c(-c3ccccc3)cc(N3CCOCC3)nn2c1-c1ccc(-c2ccccc2)cc1 | 250 nM | < 300 nM | 
2 | CCOC(=O)c1c(C(=O)OCC)c2c(-c3ccccc3)cc(N3CCOCC3)nn2c1-c1ccc(OCc2ccccc2)cc1 | 60 nM | < 100 nM | 
3 | CCOC(=O)c1c(C(=O)OCC)c2c(-c3ccccc3)cc(N3CCOCC3)nn2c1-c1ccc(N)cc1 | 630 nM | 1050 nM | 
4 | CCCc1c(C(=O)OCC)c(C(=O)OCC)c2c(-c3ccccc3)cc(N3C[C@@H](C)O[C@@H](C)C3)nn12 | > 3000 nM |  | 
5 | CCCc1c(C(=O)OCC)c(C(=O)OCC)c2c(-c3ccccc3)cc(N3CCC3)nn12 | 1360 nM | 1490 nM | 
6 | CCCc1c(C(=O)OCC)c(C(=O)OCC)c2c(-c3ccccc3)cc(N3CCCC3)nn12 | 120 nM | 1300 nM | 
7 | CCCc1c(-c2nc(CCO)no2)c(C(=O)OCC)c2c(-c3ccccc3)cc(N3CCOCC3)nn12 | 180 nM | 1050 nM | 260 nM
8 | CCCc1c(C(=O)OCC)c(C(=O)OCC)c2c(-c3ccccc3)cc(N3CCOCC3)nn12 | 120 nM | 1300 nM | 
9 | CCOC(=O)c1cn2nc(N3CCOCC3)cc(-c3ccccc3)c2c1C(=O)OCC | > 3000 nM |  | 
10 | CCCc1c(C(=O)OCC)c(C(=O)OCC)c2c(-c3ccccc3F)cc(N3CCOCC3)nn12 | 570 nM | 1490 nM | 
11 | CCOC(=O)c1c(C(=O)OCC)c2c(-c3ccccc3)cc(N3CCOCC3)nn2c1C | 520 nM | 2590 nM | 
12 | CCOC(=O)c1c(C(=O)OCC)c2c(-c3ccccc3)cc(N3CCOCC3)nn2c1CC | 240 nM | 2170 nM | 
13 | CCCc1cc(N2CCOCC2)nn2c(CCC)c(C(=O)OCC)c(C(=O)OCC)c12 | > 3000 nM |  | 
14 | C=CCc1c(C(=O)OCC)c(C(=O)OCC)c2c(-c3ccccc3)cc(N3CCOCC3)nn12 | 75 nM | 1400 nM | 
15 | CCCc1c(C(=O)OCC)c(C(=O)OCC)c2c(C(C)(C)C)cc(N3CCOCC3)nn12 | > 3000 nM |  | 
16 | CCCc1c(C(=O)OCC)c(C(=O)OCC)c2c(C3CCC3)cc(N3CCOCC3)nn12 | > 3000 nM |  | 

Row | Compound | IC50 [1] | IC50 [2] | IC50 [3]
17 | CCCCc1c(C(=O)OCC)c(C(=O)OCC)c2c(-c3ccccc3)cc(N3CCOCC3)nn12 | 160 nM | < 300 nM | 
18 | CCCc1c(C(=O)OCC)c(C(=O)OCC)c2c(C3CCCC3)cc(N3CCOCC3)nn12 | > 3000 nM |  | 
19 | CCCc1c(C(=O)OCC)c(C(=O)OCC)c2c(C3CCCCC3)cc(N3CCOCC3)nn12 | > 3000 nM |  | 
20 | CCOC(=O)c1c(C(=O)OCC)c2c(-c3ccccc3)cc(N3CCOCC3)nn2c1C1CC1 | 620 nM | 3250 nM | 
21 | CCCc1c(-c2nc(CC)no2)c(C(=O)OCC)c2c(-c3ccccc3)cc(N3CCOCC3)nn12 | 110 nM | < 1000 nM | 
22 | CCOC(=O)c1c(C(=O)OCC)c2c(-c3ccccc3)cc(N3CCOCC3)nn2c1CCCO | > 1000 nM |  | 
23 | CCOC(=O)c1c(C(=O)OCC)c2c(-c3ccccc3)cc(N3CCOCC3)nn2c1COC | 240 nM | 8750 nM | 
24 | CCCc1noc(-c2c(C(=O)OCC)c3c(-c4ccccc4)cc(N4CCOCC4)nn3c2CCC)n1 | 65 nM | 260 nM | 
25 | CCCc1c(-c2nc(C(C)C)no2)c(C(=O)OCC)c2c(-c3ccccc3)cc(N3CCOCC3)nn12 | 57 nM | < 1000 nM | 51 nM
26 | CCOC(=O)c1c(C(=O)OCC)c2c(-c3ccccc3)cc(N3CCOCC3)nn2c1CCCOC | 270 nM | 2560 nM | 
27 | CCOC(=O)c1c(C(=O)OCC)c2c(-c3ccccc3)cc(N3CCOCC3)nn2c1CCCN(C)C | > 1000 nM |  | 
28 | CCCCc1noc(-c2c(C(=O)OCC)c3c(-c4ccccc4)cc(N4CCOCC4)nn3c2CCC)n1 | 73 nM | < 1000 nM | 69 nM
29 | CCCCCc1noc(-c2c(C(=O)OCC)c3c(-c4ccccc4)cc(N4CCOCC4)nn3c2CCC)n1 | 110 nM | < 1000 nM | 
30 | CCCc1c(-c2nc(-c3ccccc3)no2)c(C(=O)OCC)c2c(-c3ccccc3)cc(N3CCOCC3)nn12 | 180 nM | 1590 nM | 200 nM
31 | CCOC(=O)c1c(C(=O)OCC)c2c(-c3ccccc3)cc(N3CCOCC3)nn2c1-c1ccc(O)cc1 | 570 nM | 1290 nM | 
